Assay results taken from BigSolDB 2.1.

O=C([O-])CCP(=O)([O-])c1ccccc1.[Na+].[Na+]
solubility (mole fraction)
Details	293.15 K	298.15 K	303.15 K	308.15 K	313.15 K	318.15 K	323.15 K	328.15 K	333.15 K	343.15 K
in acetic acid	0.000543	0.000554	0.000569	0.000581	0.000603	0.000626	0.000644	0.000663	0.000703	0.000742
in acetone	3.66e-05	3.89e-05	4.13e-05	4.39e-05	4.62e-05	4.83e-05	5.24e-05	–	–	–
in ethanol	7.03e-05	9.7e-05	0.000138	0.000197	0.000264	0.000352	0.000505	0.000728	0.000926	0.00164
in methanol	2.2e-05	2.26e-05	2.28e-05	2.3e-05	2.34e-05	2.4e-05	2.44e-05	–	–	–
in water	0.000904	0.000906	0.000908	0.000909	0.000911	0.000912	0.000913	0.000915	0.000916	0.000918

O=C(O)CCP(=O)([O-])c1ccccc1.[Na+]
solubility (mole fraction)
Details	293.15 K	298.15 K	303.15 K	308.15 K	313.15 K	318.15 K	323.15 K	328.15 K	333.15 K	343.15 K
in acetic acid	0.0169	0.0205	0.0225	0.0264	0.0283	0.0312	0.0357	0.0404	0.0471	0.062
in acetone	7e-05	0.00011	0.00016	0.00024	0.00035	0.00051	0.00075	–	–	–
in ethanol	0.00065	0.00076	0.00095	0.00106	0.00122	0.00166	0.00199	0.00223	0.00273	0.00413
in ethyl acetate	0.00039	0.00051	0.000685	0.00096	0.00117	0.00165	0.00204	0.00285	0.00384	0.00602
in methanol	0.00612	0.00671	0.00719	0.00779	0.00831	0.009	0.00993	–	–	–
in water	0.0196	0.0201	0.0214	0.0222	0.0232	0.0248	0.0263	0.0277	0.0295	0.0316
